22 molecules from PubChem BioAssay AID208 (DTP/NCI, 2004) can be followed below.

Values joined by “and” are separate entries in the source; they are usually repeats but may differ in a detail not shown here. Equal values may be shown once. Inconclusive results are not listed.

The assay relates to HT29 intrarenal xenograft, nude mice, tumor weight change. Briefly: NCI In Vivo Anticancer Drug Screen. Data for tumor model HT29;CX-1 Human Adenocarcinoma (MER+) (intrarenal inoculation) in NU/NU BALB/C (nude) mice. To be noted: endpoint: mean tumor weight change, higher = larger tumour. The procedure:
The antitumor activity of compounds was measured in mice bearing transplantable tumors. Survival or tumor size were measured and the results are expressed as the measurement made in the treated group (T) divided by the measurement made in the vehicle treated control group (C). The tumor model used in this assay is HT29;CX-1 Human Adenocarcinoma (MER+) (intrarenal inoculation) in NU/NU BALB/C (nude) mice

Where [1] appears, read: dose: 75.0 mg/kg/injection, schedule: Q04DX004 (ip), vehicle: saline.
The mark [2] stands for this setting: dose: 150.0 mg/kg/injection, schedule: Q04DX004 (ip), vehicle: saline.
Where [3] appears, read: dose: 12.5 mg/kg/injection, schedule: Q04DX004 (sc), vehicle: saline.
Setting [4] is: dose: 25.0 mg/kg/injection, schedule: Q04DX004 (sc), vehicle: saline.
The mark [5] stands for this setting: dose: 600.0 mg/kg/injection, schedule: Q04DX004 (sc), vehicle: saline with Tween-80.
Where [6] appears, read: dose: 2400.0 mg/kg/injection, schedule: Q04DX004 (sc), vehicle: saline with Tween-80.

For the molecule `CCCC(=O)O.CCCC(=O)O.CCCC(=O)O.CCCC(=O)O.[Rh].[Rh]`, the T/C is 99 % of control (dose: 4.0 mg/kg/injection, schedule: Q04DX004 (sc), vehicle: suspension in saline) and 118 % of control (dose: 8.0 mg/kg/injection, schedule: Q04DX004 (sc), vehicle: suspension in saline).
In the case of `O=C(O)CC(=O)O.[NH-]C1CCCCC1[NH-].[Pt+2]` (centres undefined), the T/C is, setting by setting: (dose: 10.0 mg/kg/injection, schedule: Q01DX010 (sc), vehicle: dextrose) 64 % of control; (dose: 20.0 mg/kg/injection, schedule: Q01DX010 (sc), vehicle: dextrose) 40 % of control; (dose: 40.0 mg/kg/injection, schedule: Q01DX010 (sc), vehicle: dextrose) 7 % of control.
Turning to `Nc1ccc(Cn2ccc3c4c(N)nc(N)nc4ccc32)cc1`, the T/C by setting is: (dose: 18.75 mg/kg/injection, schedule: Q04DX004 (sc), vehicle: saline with Tween-80) 60 % of control; (dose: 37.5 mg/kg/injection, schedule: Q04DX004 (sc), vehicle: saline with Tween-80) 58 % of control.
In the case of `NC1(C(=O)O)CCCC1`, the T/C (dose: 50.0 mg/kg/injection, schedule: Q01DX010 (sc), vehicle: saline) was 37 % of control and 40 % of control; the T/C (dose: 100.0 mg/kg/injection, schedule: Q01DX010 (sc), vehicle: saline) is 12 % of control and 22 % of control.
In the case of `CN(C)CCC(=O)C(=Cc1ccc(O)cc1)C(=O)CCN(C)C`, the T/C runs as follows: under setting [1], 66 % of control; under setting [2], 100 % of control.
As to `CO[C@@]12[C@H](COC(N)=O)C3=C(C(=O)C(C)=C(N)C3=O)N1C[C@@H]1N[C@@H]12`, the T/C (dose: 1.5 mg/kg/injection, schedule: Q04DX004 (sc), vehicle: saline) was 47 % of control and 52 % of control and 71 % of control; the T/C (dose: 3.0 mg/kg/injection, schedule: Q04DX004 (sc), vehicle: saline) is -35 % of control and -23 % of control and -13 % of control; the T/C (dose: 6.0 mg/kg/injection, schedule: Q04DX004 (sc), vehicle: saline) was -86 % of control.
As for `CC[C@@]1(O)C[C@H](OC2CC(N(C)C)C(OC3CC(O)C(OC4CCC(=O)C(C)O4)C(C)O3)C(C)O2)c2c(cc3c(c2O)C(=O)c2c(O)cccc2C3=O)[C@H]1C(=O)OC` (some centres undefined), the T/C by setting is: (dose: 1.0 mg/kg/injection, schedule: Q01DX010 (ip), vehicle: water) 58 % of control; (dose: 2.0 mg/kg/injection, schedule: Q01DX010 (ip), vehicle: water) 37 % of control.
Consider `COc1cccc2c1C(=O)c1c(O)c3c(c(O)c1C2=O)C[C@@](O)(C(=O)CO)C[C@@H]3OC1CC(N2CCOCC2C#N)C(O)C(C)O1` (some centres undefined), for which the T/C was 114 % of control (dose: 15.0 micrograms/kg/injection, schedule: Q04DX004 (ip), vehicle: saline); 110 % of control (dose: 30.0 micrograms/kg/injection, schedule: Q04DX004 (ip), vehicle: saline); 78 % of control (dose: 60.0 micrograms/kg/injection, schedule: Q04DX004 (ip), vehicle: saline).
For the molecule `O=C(O)C1(NO)CCCCC1`, the T/C is 168 % of control (dose: 200.0 mg/kg/injection, schedule: Q04DX004 (sc), vehicle: Klucel (hydroxypropylcellulose) (HPC)); 122 % of control (dose: 400.0 mg/kg/injection, schedule: Q04DX004 (sc), vehicle: Klucel (hydroxypropylcellulose) (HPC)); 92 % of control (dose: 1600.0 mg/kg/injection, schedule: Q04DX004 (sc), vehicle: Klucel (hydroxypropylcellulose) (HPC)).
On to `ClCCCN1CCCCC1CCl` (centres undefined), for which the T/C by setting is: (dose: 6.25 mg/kg/injection, schedule: Q04DX004 (sc), vehicle: saline) 57 % of control; under setting [3], 95 % of control; under setting [4], 71 % of control.
`O=C(Nc1cccc2c(OC(=O)C(Cl)Cl)c(N=Nc3ccc(S(=O)(=O)Nc4nccs4)cc3)cc(N=Nc3ccc(S(=O)(=O)Nc4nccs4)cc3)c12)C(Cl)Cl` (tested in a mixture with another compound): the T/C is 58 % of control (dose: 300.0 mg/kg/injection, schedule: Q04DX004 (sc), vehicle: saline with Tween-80); 89 % of control under setting [5]; 78 % of control (dose: 1200.0 mg/kg/injection, schedule: Q04DX004 (sc), vehicle: saline with Tween-80); 159 % of control under setting [6].
As for `CC(C)CC(NC(=O)CF)C(=O)O` (centres undefined), the T/C (dose: 10.0 mg/kg/injection, schedule: Q04DX004 (sc), vehicle: saline) was 87 % of control and the T/C (dose: 20.0 mg/kg/injection, schedule: Q04DX004 (sc), vehicle: saline) was 157 % of control.
As for `COc1cc(C2c3cc4c(cc3C(O)C(CO)C2CO)OCO4)cc(OC)c1OC` (centres undefined), the T/C by setting is: (dose: 200.0 mg/kg/injection, schedule: Q04DX004 (sc), vehicle: saline with Tween-80) 72 % of control; (dose: 400.0 mg/kg/injection, schedule: Q04DX004 (sc), vehicle: saline with Tween-80) 49 % of control; (dose: 800.0 mg/kg/injection, schedule: Q04DX004 (sc), vehicle: saline with Tween-80) 96 % of control; (dose: 1600.0 mg/kg/injection, schedule: Q04DX004 (sc), vehicle: saline with Tween-80) 30 % of control.
`Cc1cc2cc3cc(C)c(N)cc3nc2cc1N`: the T/C was 115 % of control under setting [5] and 77 % of control under setting [6].
As for `CCNC=O`, the T/C reads like this: (dose: 150.0 mg/kg/injection, schedule: Q01DX010 (ip), vehicle: suspension in saline) 82 % of control; (dose: 300.0 mg/kg/injection, schedule: Q01DX010 (ip), vehicle: suspension in saline) 42 % of control; (dose: 600.0 mg/kg/injection, schedule: Q01DX010 (ip), vehicle: suspension in saline) 39 % of control.
As for `O=CC(O)C(O)C(O)C(O)CO` (centres undefined), the T/C is 195 % of control under setting [1]; 164 % of control under setting [2]; 164 % of control (dose: 600.0 mg/kg/injection, schedule: Q04DX004 (ip), vehicle: saline).
With `COc1cc(Cc2nccc3cc(OC)c(OC)cc23)c(C(C)=O)c(OC)c1`, the T/C was 109 % of control (dose: 20.0 mg/kg/injection, schedule: Q01DX010 (sc), vehicle: saline) and 64 % of control (dose: 80.0 mg/kg/injection, schedule: Q01DX010 (sc), vehicle: saline).
Take `Cc1c(-c2ccc(-c3ccccc3F)cc2)nc2ccc(F)cc2c1C(=O)O`: the T/C runs as follows: (dose: 12.5 mg/kg/injection, schedule: Q01DX010 (ip), vehicle: water) 59 % of control; (dose: 53.3 mg/kg/injection, schedule: Q01DX009 (ip), vehicle: water) 30 % of control.
Take `N=C1CCCS1`: the T/C by setting is: under setting [3], 117 % of control; under setting [4], 151 % of control; (dose: 50.0 mg/kg/injection, schedule: Q04DX004 (sc), vehicle: saline) 96 % of control; (dose: 100.0 mg/kg/injection, schedule: Q04DX004 (sc), vehicle: saline) 62 % of control.
With `O=C(C/C(=N\C(=S)Nc1cc(C(F)(F)F)ccc1Cl)NO)N1CCCC1`, the T/C is 114 % of control (dose: 600.0 mg/kg/injection, schedule: Q04DX003 (sc), vehicle: saline with Tween-80) and 88 % of control (dose: 1200.0 mg/kg/injection, schedule: Q04DX003 (sc), vehicle: saline with Tween-80).
Consider `C[C@@H]1CC[C@]2(C)CC[C@]3(C)C(=CC[C@@H]4[C@@]5(C)CC[C@@H](OC(=O)c6ccc(O)cc6)C(C)(C)[C@@H]5C[C@H](O)[C@]43C)[C@@H]2[C@H]1C(=O)O`, for which the T/C is 79 % of control (dose: 0.62 mg/kg/injection, schedule: Q04DX004 (sc), vehicle: saline with Tween-80); 109 % of control (dose: 1.25 mg/kg/injection, schedule: Q04DX004 (sc), vehicle: saline with Tween-80); 59 % of control (dose: 2.5 mg/kg/injection, schedule: Q04DX004 (sc), vehicle: saline with Tween-80).
As to `CCCCC1CCCCCCc2[nH]c(/C=C3\N=C(c4ccc[nH]4)C=C3OC)cc21` (centres undefined), the T/C runs as follows: (dose: 2.0 mg/kg/injection, schedule: Q04DX004 (sc), vehicle: saline with Tween-80) 100 % of control; (dose: 4.0 mg/kg/injection, schedule: Q04DX004 (sc), vehicle: saline with Tween-80) 192 % of control; (dose: 8.0 mg/kg/injection, schedule: Q04DX004 (sc), vehicle: saline with Tween-80) 92 % of control.
